# Test results as given in PubChem BioAssay (NCI).
#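 At the GI50, growth is halved. TGI is the concentration that stops growth completely.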
# Tests used:
# Test in all cases: growth of human tumour cells (NCI), 384-well format
# SK-MEL-28 melanoma = test system: SK-MEL-28 melanoma
# NCI-H23 lung = test system: NCI-H23 lung
# A549 NSCLC = test system: A549 NSCLC
# DU-145 prostate = test system: DU-145 prostate
# U251 glioblastoma = test system: U251 glioblastoma
# MOLT-4 leukemia = test system: MOLT-4 leukemia
# HS 578T breast = test system: HS 578T breast
# ACHN renal = test system: ACHN renal
# OVCAR-4 ovarian = test system: OVCAR-4 ovarian
# MDA-MB-435 melanoma = test system: MDA-MB-435 melanoma
# MDA-MB-231 breast = test system: MDA-MB-231 breast
# SK-MEL-5 melanoma = test system: SK-MEL-5 melanoma
# HL-60(TB) leukemia = test system: HL-60(TB) leukemia
# UACC-257 melanoma = test system: UACC-257 melanoma
# OVCAR-8 ovarian = test system: OVCAR-8 ovarian
# SW-620 colon = test system: SW-620 colon
# NCI-H522 lung = test system: NCI-H522 lung
# NCI-H226 lung = test system: NCI-H226 lung
# T-47D breast = test system: T-47D breast
# NCI-H460 NSCLC = test system: NCI-H460 NSCLC
# RXF 393 renal = test system: RXF 393 renal
# RPMI-8226 leukemia = test system: RPMI-8226 leukemia
# NCI/ADR-RES ovarian = test system: NCI/ADR-RES ovarian
# HCT-15 colon = test system: HCT-15 colon
# PC-3 prostate = test system: PC-3 prostate
# HOP-62 NSCLC = test system: HOP-62 NSCLC
# 786-0 renal = test system: 786-0 renal
# OVCAR-5 ovarian = test system: OVCAR-5 ovarian
# SF-295 CNS = test system: SF-295 CNS
# SK-MEL-2 melanoma = test system: SK-MEL-2 melanoma
# SN12C renal = test system: SN12C renal
# HT29 colon = test system: HT29 colon
# SR leukemia = test system: SR leukemia
# LOX IMVI melanoma = test system: LOX IMVI melanoma
# K-562 leukemia = test system: K-562 leukemia
# OVCAR-3 ovarian = test system: OVCAR-3 ovarian
# UACC-62 melanoma = test system: UACC-62 melanoma
# CCRF-CEM leukemia = test system: CCRF-CEM leukemia
# HCT-116 colon = test system: HCT-116 colon
# KM12 colon = test system: KM12 colon
# EKVX NSCLC = test system: EKVX NSCLC
# HCC-2998 colon = test system: HCC-2998 colon
# A498 renal = test system: A498 renal
# MDA-MB-468 breast = test system: MDA-MB-468 breast
# SNB-75 CNS = test system: SNB-75 CNS
# COLO 205 colon = test system: COLO 205 colon
# BT-549 breast = test system: BT-549 breast
smiles,measurement,setting,value
CCNC(=O)c1cc2c(-c3cc(C(C)(C)O)ccc3Oc3c(C)cc(F)cc3C)cn(C)c(=O)c2[nH]1,GI50,SK-MEL-28 melanoma,2960 nM
same,TGI,SK-MEL-28 melanoma,15900 nM
same,GI50,NCI-H23 lung,725 nM
same,TGI,NCI-H23 lung,2810 nM
same,GI50,A549 NSCLC,1510 nM
same,TGI,A549 NSCLC,12000 nM
same,GI50,DU-145 prostate,2520 nM
same,TGI,DU-145 prostate,14700 nM
same,GI50,U251 glioblastoma,2540 nM
same,TGI,U251 glioblastoma,10900 nM
same,GI50,MOLT-4 leukemia,432 nM
same,TGI,MOLT-4 leukemia,1900 nM
same,GI50,HS 578T breast,125 nM
same,TGI,HS 578T breast,2020 nM
same,GI50,ACHN renal,3230 nM
same,TGI,ACHN renal,15100 nM
same,GI50,OVCAR-4 ovarian,201 nM
same,TGI,OVCAR-4 ovarian,870 nM
same,GI50,MDA-MB-435 melanoma,5220 nM
same,TGI,MDA-MB-435 melanoma,19100 nM
same,GI50,MDA-MB-231 breast,505 nM
same,TGI,MDA-MB-231 breast,12100 nM
same,GI50,SK-MEL-5 melanoma,1270 nM
same,TGI,SK-MEL-5 melanoma,3680 nM
same,GI50,HL-60(TB) leukemia,145 nM
same,TGI,HL-60(TB) leukemia,618 nM
same,GI50,UACC-257 melanoma,748 nM
same,TGI,UACC-257 melanoma,10400 nM
same,GI50,OVCAR-8 ovarian,1120 nM
same,TGI,OVCAR-8 ovarian,2550 nM
same,GI50,SW-620 colon,2970 nM
same,TGI,SW-620 colon,15600 nM
same,GI50,NCI-H522 lung,17.6 nM
same,TGI,NCI-H522 lung,933 nM
same,GI50,NCI-H226 lung,1260 nM
same,TGI,NCI-H226 lung,11500 nM
same,GI50,T-47D breast,1310 nM
same,TGI,T-47D breast,8300 nM
same,GI50,NCI-H460 NSCLC,2870 nM
same,TGI,NCI-H460 NSCLC,12400 nM
same,GI50,RXF 393 renal,1220 nM
same,TGI,RXF 393 renal,3550 nM
same,GI50,RPMI-8226 leukemia,12.5 nM
same,TGI,RPMI-8226 leukemia,693 nM
same,GI50,NCI/ADR-RES ovarian,12300 nM
same,TGI,NCI/ADR-RES ovarian,26100 nM
same,GI50,HCT-15 colon,1600 nM
same,TGI,HCT-15 colon,5230 nM
same,GI50,PC-3 prostate,1410 nM
same,TGI,PC-3 prostate,12600 nM
same,GI50,HOP-62 NSCLC,1030 nM
same,TGI,HOP-62 NSCLC,4950 nM
same,GI50,786-0 renal,1240 nM
same,TGI,786-0 renal,12300 nM
same,GI50,OVCAR-5 ovarian,1030 nM
same,TGI,OVCAR-5 ovarian,9890 nM
same,GI50,SF-295 CNS,3000 nM
same,TGI,SF-295 CNS,11100 nM
same,GI50,SK-MEL-2 melanoma,139 nM
same,TGI,SK-MEL-2 melanoma,2850 nM
same,GI50,SN12C renal,3230 nM
same,TGI,SN12C renal,13600 nM
same,GI50,HT29 colon,1240 nM
same,TGI,HT29 colon,13400 nM
same,GI50,SR leukemia,32.8 nM
same,TGI,SR leukemia,1300 nM
same,GI50,LOX IMVI melanoma,507 nM
same,TGI,LOX IMVI melanoma,1840 nM
same,GI50,K-562 leukemia,879 nM
same,TGI,K-562 leukemia,10700 nM
same,GI50,OVCAR-3 ovarian,602 nM
same,TGI,OVCAR-3 ovarian,2460 nM
same,GI50,UACC-62 melanoma,152 nM
same,TGI,UACC-62 melanoma,4060 nM
same,GI50,CCRF-CEM leukemia,1030 nM
same,TGI,CCRF-CEM leukemia,2370 nM
same,GI50,HCT-116 colon,1370 nM
same,TGI,HCT-116 colon,10300 nM
same,GI50,KM12 colon,1420 nM
same,TGI,KM12 colon,11200 nM
same,GI50,EKVX NSCLC,3230 nM
same,TGI,EKVX NSCLC,13900 nM
same,GI50,HCC-2998 colon,542 nM
same,TGI,HCC-2998 colon,2030 nM
same,GI50,A498 renal,1870 nM
same,TGI,A498 renal,13000 nM
same,GI50,MDA-MB-468 breast,358 nM
same,TGI,MDA-MB-468 breast,2080 nM
same,GI50,SNB-75 CNS,1500 nM
same,TGI,SNB-75 CNS,10300 nM
same,GI50,COLO 205 colon,1100 nM
same,TGI,COLO 205 colon,2750 nM
same,GI50,BT-549 breast,298 nM
same,TGI,BT-549 breast,1920 nM
